In assay [1] the test system is chronic constriction injury model of neuropathic pain. As to the kind of experiment: CCI model of neuropathic pain, reversal of mechano-allodynia. It counts as in vivo, mice. As to conditions: for Effect at 3 h (% ± SEM) / Max. effect Emax (% ± SEM) / Time of peak protection: 3 μmol/kg p.o., mice; for Max. effect Emax (% ± SEM) / Time of peak protection: ipsilateral hind paw; for Efficacy in reversing NP in vivo (of full reversal at peak effect): CCI model.

Assay [2] concerns the target hA2AAR (Homo sapiens (Human), UniProt P29274). As to the kind of experiment: Radioligand binding at hA2AAR, HEK293 cell membranes, [3H]CGS21680. The note with it: for hA2AAR % inhibition: inhibition of binding at 10 μM; for inhibition at 10 µM: read-out: hA2AAR % inhibition.
Assay [3] addresses hA1AR (Homo sapiens (Human), UniProt P30542). As to the kind of experiment: Radioligand binding at hA1AR, CHO cell membranes, [3H]R-PIA. As to conditions: for hA1AR % inhibition: inhibition of binding at 10 μM; for inhibition at 10 µM: read-out: hA1AR % inhibition.
For assay [4], the target named is hA3AR (Homo sapiens (Human), UniProt P0DMS8). Briefly: Radioligand binding at hA3AR, CHO cell membranes, [125I]I-AB-MECA.
Assay [5] has as its target mA3AR (Mus musculus (Mouse), UniProt Q61618). As to the kind of experiment: Competition binding at mA3AR, HEK293 cell membranes.
Assay [6] has as its target human DAT (Homo sapiens (Human), UniProt Q01959). Briefly: Radioligand ([3H]WIN35428) binding at the dopamine transporter. As to conditions: 10 μM.

Consider 22 compounds from US10577368B2 (The United States of America, as represented by the …, priority 2013, dated 2020).

Chain of hA1AR (P30542 whole entry): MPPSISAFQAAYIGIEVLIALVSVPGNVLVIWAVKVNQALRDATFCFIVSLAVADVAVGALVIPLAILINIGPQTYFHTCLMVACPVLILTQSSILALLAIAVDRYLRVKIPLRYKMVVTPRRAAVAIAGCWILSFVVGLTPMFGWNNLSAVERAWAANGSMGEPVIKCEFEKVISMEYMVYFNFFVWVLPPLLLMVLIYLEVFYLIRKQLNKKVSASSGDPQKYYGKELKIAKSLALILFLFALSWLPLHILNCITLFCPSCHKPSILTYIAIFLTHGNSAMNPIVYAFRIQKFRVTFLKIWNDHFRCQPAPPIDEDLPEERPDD
Chain of hA2AAR (P29274 whole entry): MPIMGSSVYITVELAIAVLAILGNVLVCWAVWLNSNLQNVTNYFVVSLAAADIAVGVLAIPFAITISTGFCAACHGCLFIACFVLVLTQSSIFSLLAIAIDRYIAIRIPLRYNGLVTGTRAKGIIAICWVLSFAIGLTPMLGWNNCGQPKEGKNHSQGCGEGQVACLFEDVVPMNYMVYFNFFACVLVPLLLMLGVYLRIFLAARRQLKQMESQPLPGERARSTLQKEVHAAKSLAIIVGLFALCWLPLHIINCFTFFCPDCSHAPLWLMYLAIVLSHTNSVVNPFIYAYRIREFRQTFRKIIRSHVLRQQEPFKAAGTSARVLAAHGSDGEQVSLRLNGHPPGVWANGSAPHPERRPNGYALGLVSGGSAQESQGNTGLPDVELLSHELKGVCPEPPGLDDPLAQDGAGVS
Chain of hA3AR (P0DMS8 whole entry): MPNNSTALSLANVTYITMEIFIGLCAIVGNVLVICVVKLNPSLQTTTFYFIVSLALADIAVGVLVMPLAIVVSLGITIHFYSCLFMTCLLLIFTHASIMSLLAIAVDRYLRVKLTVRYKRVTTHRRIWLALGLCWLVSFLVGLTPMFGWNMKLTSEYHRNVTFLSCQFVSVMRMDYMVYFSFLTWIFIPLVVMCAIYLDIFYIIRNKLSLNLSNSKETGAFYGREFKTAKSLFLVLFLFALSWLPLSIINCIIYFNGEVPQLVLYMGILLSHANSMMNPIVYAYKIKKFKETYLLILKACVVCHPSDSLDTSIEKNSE
Chain of mA3AR (Q61618 whole entry): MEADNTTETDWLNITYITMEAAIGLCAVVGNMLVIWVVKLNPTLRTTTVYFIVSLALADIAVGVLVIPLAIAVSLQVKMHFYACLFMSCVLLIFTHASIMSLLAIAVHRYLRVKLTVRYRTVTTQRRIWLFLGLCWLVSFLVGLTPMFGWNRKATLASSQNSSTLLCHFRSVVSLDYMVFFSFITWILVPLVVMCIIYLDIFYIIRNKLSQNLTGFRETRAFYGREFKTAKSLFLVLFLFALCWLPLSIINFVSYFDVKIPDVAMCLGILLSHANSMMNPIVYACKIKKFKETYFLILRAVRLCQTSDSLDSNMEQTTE
Chain of human DAT (Q01959 whole entry): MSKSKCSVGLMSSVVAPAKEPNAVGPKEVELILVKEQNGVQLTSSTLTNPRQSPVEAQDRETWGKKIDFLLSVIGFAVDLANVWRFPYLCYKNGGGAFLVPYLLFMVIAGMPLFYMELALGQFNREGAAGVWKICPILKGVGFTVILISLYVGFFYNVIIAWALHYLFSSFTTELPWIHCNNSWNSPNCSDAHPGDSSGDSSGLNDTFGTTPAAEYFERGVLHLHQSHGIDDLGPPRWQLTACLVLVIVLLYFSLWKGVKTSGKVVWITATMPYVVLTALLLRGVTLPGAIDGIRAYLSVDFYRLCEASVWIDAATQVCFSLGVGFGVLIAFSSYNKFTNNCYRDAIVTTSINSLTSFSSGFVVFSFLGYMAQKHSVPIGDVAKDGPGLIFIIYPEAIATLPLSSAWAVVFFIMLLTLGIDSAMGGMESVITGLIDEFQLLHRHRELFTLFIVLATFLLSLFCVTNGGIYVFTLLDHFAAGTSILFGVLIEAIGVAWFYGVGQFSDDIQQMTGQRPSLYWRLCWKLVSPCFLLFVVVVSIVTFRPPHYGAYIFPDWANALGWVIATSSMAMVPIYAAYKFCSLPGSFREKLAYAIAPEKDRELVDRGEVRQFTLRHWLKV

`CNC(=O)[C@]12CC1[C@@H](n1cnc3c(NC)nc(-n4cc(-c5cnn(C)c5)nn4)nc31)[C@H](O)C2O` (stereo partly drawn) [Compound 106]: in assay [1], the “Effect at 3 h (% ± SEM)” value is given as 22 ± 7%, the “Max. effect Emax (% ± SEM)” value was 85 ± 5% and the “Time of peak protection” value was 1 h. In assay [2], this compound showed a hA2AAR % inhibition of 1 ± 1%. In assay [3], this compound showed a hA1AR % inhibition of 2 ± 2%. Further, the affinity in assay [4], expressed as Ki, was 2.16 ± 0.32 nM.

For `CNC(=O)[C@]12CC1[C@@H](n1cnc3c(NC)nc(-n4cc(-c5ccco5)nn4)nc31)[C@H](O)C2O` (stereo partly drawn) [Compound 107], in assay [1], the “Effect at 3 h (% ± SEM)” value is listed as 21 ± 7%, the “Max. effect Emax (% ± SEM)” value was determined as 65 ± 8% and the “Time of peak protection” value was determined as 1 h. The compound further came in with a hA2AAR % inhibition in assay [2] of 51 ± 1%. In addition, the affinity in assay [4], expressed as Ki, was 0.96 ± 0.09 nM.

Take `CCc1ccc(C#Cc2nc(NC)c3ncn([C@H]4[C@H](O)[C@H](O)[C@]5(C(=O)NC)C[C@H]45)c3n2)o1` [Compound 34, (1S,2R,3S,4R,5S)-4-(2-((5-Ethylfuran-2-yl)ethynyl)-6-(methylamino)-9H-purin-9-yl)-2,3-dihydroxy-N-methylbicyclo[3.1.0]hexane-1-carboxamide]: the “Time of peak protection” value in assay [1] came out at 1 h. The inhibition (commonly the relative decrease from the control value, in per cent) at 10 µM in assay [2] amounted to 4 ± 4%; in assay [3] it was 18%. Further, the Ki (in general, the dissociation constant of the complex between target and ligand, obtained from inhibition or displacement) in assay [4] is 1.5 ± 0.28 nM.

Consider `CNC(=O)[C@@]12C[C@@H]1[C@@H](n1cnc3c(NC)nc(C#Cc4cc[nH]n4)nc31)[C@H](O)[C@@H]2O` [Compound 9, (1S,2R,3S,4R,5S)-4-(2-((1H-Pyrazol-3-yl)ethynyl)-6-(methylamino)-9H-purin-9-yl)-2,3-dihydroxy-N-methylbicyclo[3.1.0]hexane-1-carboxamide], for which, in assay [1], the “Time of peak protection” value was in the range of 0.5 to 1 h. For the same compound, the inhibition at 10 µM in assay [2] came out at 19 ± 2%; in assay [3], 30%. Also, the affinity in assay [5] corresponds to a Ki of 50 ± 2 nM.

Take `CNC(=O)[C@]12CC1[C@@H](n1cnc3c(NCCc4ccccc4)nc(I)nc31)[C@H](O)C2O` (stereo partly drawn) [Compound 119]: the hA1AR % inhibition in assay [3] is listed as 68%. In addition, the affinity in assay [4] corresponds to a Ki of 0.91 ± 0.14 nM.

For the compound `CNC(=O)[C@]12CC1[C@@H](n1cnc3c(NC)nc(-n4cc(-c5cnccn5)nn4)nc31)[C@H](O)C2O` (stereo partly drawn) [Compound 105], in assay [1], the “Effect at 3 h (% ± SEM)” value stood at 22 ± 7%, the “Max. effect Emax (% ± SEM)” value is 78 ± 0% and the “Time of peak protection” value was 1 h. The hA2AAR % inhibition in assay [2] stood at 8 ± 3%. In assay [3], the hA1AR % inhibition came out at 25 ± 10%. In assay [4], this compound returned a Ki of 2.21 ± 0.34 nM.

On to `CNC(=O)[C@]12CC1[C@@H](n1cnc3c(NC)nc(-n4cc(-c5ccc(Br)s5)nn4)nc31)[C@H](O)C2O` (stereo partly drawn) [Compound 111], for which, in assay [1], the “Effect at 3 h (% ± SEM)” value was found to be 14 ± 2%, the “Max. effect Emax (% ± SEM)” value was 69 ± 9% and the “Time of peak protection” value is 1 h. Further, the hA2AAR % inhibition in assay [2] is listed as 7 ± 6%. Further, the Ki in assay [4] was found to be 0.58 ± 0.17 nM.

In the case of `CNC(=O)[C@@]12C[C@@H]1[C@@H](n1cnc3c(NC)nc(C#Cc4ccsc4)nc31)[C@H](O)[C@@H]2O` [Compound 16, (1 S,2R,3S,4R,5S)-2,3-Dihydroxy-N-methyl-4-(6-(methylamino)-2-(thiophen-3-ylethynyl)-9H-purin-9-yl)bicyclo[3.1.0]hexane-1-carboxamide], the “Time of peak protection” value in assay [1] fell in the range of 0.5 to 1 h. For the same compound, in assay [1], the “Efficacy in reversing NP in vivo (of full reversal at peak effect)” value (“Efficacy in reversing NP in vivo” below) is on record as “diminished”. Besides, the inhibition at 10 µM in assay [2] is 3 ± 2%; in assay [3], 11%. The compound further returned an inhibition constant (Ki) in assay [4] of 0.52 ± 0.04 nM.

As to `CNC(=O)[C@]12CC1[C@@H](n1cnc3c(NC)nc(-n4cc(-c5ccccn5)nn4)nc31)[C@H](O)C2O` (stereo partly drawn) [Compound 103], in assay [1], the “Effect at 3 h (% ± SEM)” value worked out at 22 ± 7%, the “Max. effect Emax (% ± SEM)” value is given as 55 ± 6% and the “Time of peak protection” value worked out at 1 h. The same compound displayed a hA2AAR % inhibition in assay [2] of 26 ± 2%. Moreover, the hA1AR % inhibition in assay [3] is 29 ± 7%. In assay [4], the Ki stood at 1.84 ± 0.38 nM.

For the compound `CNC(=O)[C@]12CC1[C@@H](n1cnc3c(NC)nc(-n4cc(-c5ncccn5)nn4)nc31)[C@H](O)C2O` (stereo partly drawn) [Compound 104], in assay [1], the “Effect at 3 h (% ± SEM)” value is on record as 39 ± 10%, the “Max. effect Emax (% ± SEM)” value is listed as 89 ± 11% and the “Time of peak protection” value was 1 h. The hA2AAR % inhibition in assay [2] amounted to 27 ± 3%. The same compound returned a hA1AR % inhibition in assay [3] of 14 ± 7%. Also, the Ki in assay [4] was 3.48 ± 0.97 nM.

With `CNC(=O)[C@]12CC1[C@@H](n1cnc3c(NCCc4ccccc4)nc(-n4cc(-c5ccc(Cl)s5)nn4)nc31)[C@H](O)C2O` (stereo partly drawn) [Compound 121], in assay [1], the “Effect at 3 h (% ± SEM)” value is 80%, the “Max. effect Emax (% ± SEM)” value came out at 90% and the “Time of peak protection” value was in the range of 0.5 to 3 h. Further, the hA1AR % inhibition in assay [3] is recorded as 58%. Besides, the Ki in assay [4] came out at 6.66 ± 2.07 nM.

Turning to `CNC(=O)[C@@]12C[C@@H]1[C@@H](n1cnc3c(NC)nc(C#Cc4cccc(OC)c4)nc31)[C@H](O)[C@@H]2O` [Compound 12, (1S,2R,3S,4R,5S)-2,3-Dihydroxy-4-(2-((3-methoxyphenyl)ethynyl)-6-(methylamino)-9H-purin-9-yl)-N-methylbicyclo[3.1.0]hexane-1-carboxamide], the “Time of peak protection” value in assay [1] lay within 0.5 to 2 h. The inhibition at 10 µM turned out to be 26 ± 5% in assay [2] and 8 ± 4% in assay [3]. In assay [4], this compound had a Ki of 0.91 ± 0.07 nM.

Take `CNC(=O)[C@@]12C[C@@H]1[C@@H](n1cnc3c(NC)nc(C#Cc4ccc(OC)cc4)nc31)[C@H](O)[C@@H]2O` [Compound 11, (1S,2R,3S,4R,5S)-2,3-Dihydroxy-4-(2-((4-methoxyphenyl)ethynyl)-6-(methylamino)-9H-purin-9-yl)-N-methylbicyclo[3.1.0]hexane-1-carboxamide]: the “Time of peak protection” value in assay [1] is 0.5 to 1 h. Besides, the inhibition at 10 µM in assay [2] was determined as 24 ± 8%; in assay [3] it was 10%. In assay [4], this compound displayed a Ki of 0.63 ± 0.07 nM.

The compound `CNC(=O)[C@]12CC1[C@@H](n1cnc3c(NCCc4ccccc4)nc(N=[N+]=[N-])nc31)[C@H](O)C2O` (stereo partly drawn) [Compound 117] returned a hA2AAR % inhibition in assay [2] of 71%. Moreover, in assay [3], the hA1AR % inhibition worked out at 93%. In assay [4], this compound showed a Ki of 0.85 ± 0.1 nM.

For `CCNc1nc(C#Cc2ccc(Cl)s2)nc2c1ncn2[C@H]1C(O)[C@@H](O)[C@]2(C(=O)NC)C[C@H]12` (stereo partly drawn) [Compound 126], in assay [6], the “Increase of the level of radioligand ([3H]WIN35428) binding at the human DAT” value came to 329%.

For `CNC(=O)[C@]12CC1[C@@H](n1cnc3c(NC4CCC4)nc(N=[N+]=[N-])nc31)[C@H](O)C2O` (stereo partly drawn) [Compound 115], the hA2AAR % inhibition in assay [2] was determined as 46%. Further, in assay [4], the Ki worked out at 0.85 ± 0.1 nM.

Regarding `CNC(=O)[C@@]12C[C@@H]1[C@@H](n1cnc3c(NC)nc(C#Cc4ccncc4)nc31)[C@H](O)[C@@H]2O` [Compound 300, (1S,2R,3S,4R,5S)-2,3-Dihydroxy-N-methyl-4-(6-(methylamino)-2-(pyridin-4-ylethynyl)-9H-purin-9-yl)bicyclo[3.1.0] hexane-1-carboxamide], in assay [1], the “Time of peak protection” value is 1 h and the “Efficacy in reversing NP in vivo” value was “low efficacy”. Further, the inhibition at 10 µM in assay [2] was 2 ± 2%. The inhibition at 10 µM in assay [3] was determined as 15%. The Ki in assay [4] was 2.07 ± 0.16 nM.

`CNC(=O)[C@]12CC1[C@@H](n1cnc3c(NC)nc(-n4cc(-c5cc6ccccc6o5)nn4)nc31)[C@H](O)C2O` (stereo partly drawn) [Compound 108]: in assay [1], the “Effect at 3 h (% ± SEM)” value amounted to 8 ± 8%, the “Max. effect Emax (% ± SEM)” value was 55 ± 6% and the “Time of peak protection” value worked out at 1 h. The compound also showed a hA2AAR % inhibition in assay [2] of 40 ± 6%. This compound had a hA1AR % inhibition in assay [3] of 12 ± 7%. The compound further showed a Ki in assay [4] of 1.25 ± 0.27 nM.

`CCNc1nc(I)nc2c1ncn2[C@@H]1C2C[C@]2(C(=O)NC)C(O)[C@H]1O` (stereo partly drawn) [Compound 122]: the hA2AAR % inhibition in assay [2] worked out at 11 ± 7%. Besides, the affinity in assay [4], expressed as Ki, was 1.22 ± 0.21 nM.

For the compound `CNC(=O)[C@@]12C[C@@H]1[C@@H](n1cnc3c(NC)nc(C#Cc4ncccn4)nc31)[C@H](O)[C@@H]2O` [Compound 6, (1S,2R,3S,4R,5S)-2,3-Dihydroxy-N-methyl-4-(6-(methylamino)-2-(pyrimidin-2-ylethynyl)-9H-purin-9-yl)bicyclo[3.1.0]hexane-1-carboxamide], in assay [1], the “Max. effect Emax (% ± SEM)” value is recorded as 92.3 ± 7.7%, the “Time of peak protection” value was 0.5 to 1 h and the “Efficacy in reversing NP in vivo” value is reported as “less than full efficacy”. Besides, the inhibition at 10 µM in assay [2] is 27 ± 5%. Moreover, the affinity in assay [5], expressed as Ki, was 65 ± 6 nM. Besides, the inhibition at 10 µM in assay [3] amounted to 25 ± 10%.

With `CNC(=O)[C@]12CC1[C@@H](n1cnc3cnc(C#Cc4ccccc4)nc31)[C@H](O)C2O` (stereo partly drawn) [Compound 402], the Ki in assay [2] came out at 1200 nM; in assay [4], 1.51 ± 0.41 nM. The same compound gave a hA1AR % inhibition in assay [3] of 28 ± 4%.

In the case of `CNC(=O)[C@@]12C[C@@H]1[C@@H](n1cnc3c(NC)nc(C#Cc4ccccc4OC)nc31)[C@H](O)[C@@H]2O` [Compound 13, (1S,2R,3S,4R,5S)-2,3-Dihydroxy-4-(2-((2-methoxyphenyl)ethynyl)-6-(methylamino)-9H-purin-9-yl)-N-methylbicyclo[3.1.0]hexane-1-carboxamide], in assay [1], the “Max. effect Emax (% ± SEM)” value is reported as 64.3 ± 10.7%, the “Time of peak protection” value stood at 1 h and the “Efficacy in reversing NP in vivo” value is about 70%. Besides, the inhibition at 10 µM in assay [2] is 20 ± 7%. Further, in assay [3], the inhibition at 10 µM came out at 12%. In assay [4], this compound gave a Ki of 0.77 ± 0.17 nM.
